Data reported in patent US20060257466A1, “Administration of macrophage targeted formulations of compounds which modulate cholesterol-metabolizing enzymes for treatment of atherosclerosis” (priority 2005, published 2006).

Test system: J774 macrophages
Experiment: Cholesterol efflux in vivo (macrophage cholesterol export)
Conditions: mice injected with [3H]-cholesterol-loaded J774 cells; 20 μg, tail vein; versus PBS vehicle; FIG. 1
Procedure: FIG. 1 is a line graph comparing in vivo macrophage cholesterol export in mice treated with a liposomal formulation of the ACAT inhibitor, Sandoz 58-035, at an estimated dose of 20 μg (open circles), mice treated with 20 μg of free non-liposome formulated Sandoz 58-035 (closed circles), and mice administered phosphate buffered saline (closed triangles).
For non-liposome formulated Sandoz 58-035 experiments, 10 ul of the stock solution (2 mg/ml) was diluted with 190 ul of phosphate buffered saline (PBS) to give a final Sandoz 58-035 solution of 20 μg/200 μl. Two hundred microliters of this solution containing 20 μg of Sandoz 58-035 was injected into each mouse through the tail vein.
Sandoz 58-035 was liposome formulated using a modified method of Jonas and co-workers (Jonas et al. J. Bio. Chem. 1989 264:4818-4825). […]
To determine cholesterol export in vivo, J774 cells were loaded with cholesterol and simultaneously incubated for 3 hours with 0.5 μCi/mL [^3H]-cholesterol, followed by an overnight equilibration period as described by Tam et al. (J. Lipid Res. 2002 43:1410-1420). […] Cholesterol efflux was determined by measuring the appearance of [^3H]-cholesterol in plasma by scintillation spectrometry. […]

Q: How did the “in vivo macrophage cholesterol export (result in words)” value turn out when `CCCCCCCCCC[Si](C)(C)CCC(=O)NC(Cc1ccc(C)cc1)c1ccccc1` (stereo not shown) [Sandoz 58-035] was run?
A: The value was “did not increase macrophage cholesterol export over the vehicle”.
